ChEMBL document CHEMBL4834408, “Sesquiterpenoids from Chrysanthemum indicum with Inhibitory Effects on NO Production” (J Nat Prod, 2021)

Assays:
RAW264.7 = assay: Inhibition of LPS induced NO production in mouse RAW264.7 cells measured after 24 hrs by Griess reagent based assay; type: functional, cell-based; details: RAW264.7, 24 h
[1] = Cytotoxicity against mouse RAW264.7 cells assessed as reduction in cell viability measured after 24 hrs by MTT assay; type: cell-based

SMILES | IC50 (RAW264.7) [µM] | CC50 at 24 h [1] [µM]
O=C(O)[C@H]1O[C@@H](Oc2cc(O)c3c(=O)cc(-c4ccc(O)c(O)c4)oc3c2)[C@H](O)[C@@H](O)[C@@H]1O | > 100 | > 100
O=c1cc(-c2ccc(O)c(O)c2)oc2cc(O[C@@H]3O[C@H](CO)[C@@H](O)[C@H](O)[C@H]3O)cc(O)c12 [GALUTEOLIN] | 87.5 | > 100
C=C[C@](C)(CCC/C(C)=C/C(=O)C=C(C)C)O[C@@H]1O[C@H](CO)[C@@H](O)[C@H](O)[C@H]1O | > 100 | > 100
CC(=O)/C=C/[C@]1(O)C(C)(C)C[C@H](O)C[C@@]1(C)O | 29.9 | > 100
COc1ccc(-c2cc(=O)c3c(O)cc(O[C@@H]4O[C@H](C(=O)O)[C@@H](O)[C@H](O)[C@H]4O)cc3o2)cc1 | 92.4 | > 100
C=C[C@](C)(CC/C=C(\C)CC(=O)CC(C)C)O[C@@H]1O[C@H](CO)[C@@H](O)[C@H](O)[C@H]1O | > 100 | > 100
C[C@@H]1O[C@@H](OC[C@H]2O[C@@H](Oc3cc(O)c4c(=O)cc(-c5ccc(O)c(O)c5)oc4c3)[C@H](O)[C@@H](O)[C@@H]2O)[C@H](O)[C@H](O)[C@H]1O | > 100 | > 100
C=C(C)C(O)CC[C@@](C)(O)[C@H]1CC=C(C)C(=O)C1 (stereo partly drawn) | > 100 | > 100
COc1ccc(-c2cc(=O)c3c(O)cc(O)cc3o2)cc1O [DIOSMETIN] | 34.5 | –
COc1ccc(-c2cc(=O)c3c(O)cc(O[C@@H]4O[C@H](CO)[C@@H](O)[C@H](O)[C@H]4O)cc3o2)cc1 [TILIANINE] | 45.4 | > 100
CC1(C)C[C@H](O)C[C@@]2(C)OC(=O)C=C12 [LOLIOLIDE] | 56.7 | > 100
C=C1C(=O)O[C@@H]2[C@H]3C(C)=CC(=O)[C@@H]3[C@@H](C)C[C@H](OC(=O)/C(C)=C\C)[C@@H]12 | 27 | > 100
C=C1C(=O)O[C@H]2[C@H]1[C@@H](OC(=O)/C(C)=C\C)CC(C)=C1C[C@@H]3O[C@]3(C)[C@@H]12 | 0.2 | 21.7
O=C(O)[C@H]1O[C@@H](Oc2cc(O)c3c(=O)cc(-c4ccc(O)cc4)oc3c2)[C@H](O)[C@@H](O)[C@@H]1O | > 100 | > 100
C=C1C(=O)O[C@H]2[C@H]1[C@@H](OC(=O)C(C)CC)CC(C)=C1C[C@@H]3O[C@]3(C)[C@@H]12 (stereo partly drawn) | 3 | 21.5

More lines, main results first:

IC50 (RAW264.7) [µM] | SMILES | CC50 at 24 h [1] [µM]
31.2 | COc1ccc([C@@H]2CC(=O)c3c(O)cc(O)cc3O2)cc1O [HESPERETIN] | > 100
1.8 | C=C1C(=O)O[C@@H]2[C@H]3C(C)=CC(=O)[C@H]3[C@@H](C)C[C@H](OC(=O)/C(C)=C\C)[C@@H]12 | 22.5
> 100 | CC1=CC[C@H]([C@](C)(O)C/C=C/C(C)(C)O)CC1=O | > 100
5.9 | COc1ccc(-c2cc(=O)c3c(O)cc(O)cc3o2)cc1 [ACACETIN] | 60.9
48.8 | CC1=CC[C@H](C(C)(C)O)CC1=O | 98
53.7 | O=c1cc(-c2ccc(O)cc2)oc2cc(O[C@@H]3O[C@H](CO)[C@@H](O)[C@H](O)[C@H]3O)cc(O)c12 [APIGETRIN] | > 100
48.4 | C=C[C@@](C)(O)C[C@H](O)/C=C(\C)CC(=O)C=C(C)C | > 100
> 100 | C=C[C@](C)(CC/C=C(\C)CC(=O)C=C(C)C)O[C@@H]1O[C@H](CO)[C@@H](O)[C@H](O)[C@H]1O | > 100
9.9 | C=C1C(=O)O[C@@H]2/C=C(\C)CC/C=C(\C)C[C@H](OC(=O)/C(C)=C\C)[C@@H]12 | 27
> 100 | COc1ccc(-c2cc(=O)c3c(O)cc(O[C@@H]4O[C@H](CO[C@@H]5O[C@@H](C)[C@H](O)[C@@H](O)[C@H]5O)[C@@H](O)[C@H](O)[C@H]4O)cc3o2)cc1 [ACACIIN] | > 100
18.4 | O=c1cc(-c2ccc(O)cc2)oc2cc(O)cc(O)c12 [APIGENIN] | 65.1
97.8 | C=C[C@](C)(CCC/C(C)=C\C(=O)C=C(C)C)O[C@@H]1O[C@H](CO)[C@@H](O)[C@H](O)[C@H]1O | > 100
